Reference: patent publication US20250236627A1, “CERTAIN OCTAHYDROFURO[3,4- B]PYRAZINES AS GLP-1 RECEPTOR MODULATORS” (ASTRAZENECA AB, priority 2021, published 2025)
pEC50: −log10 of the molar value.

Assays:
human GLP-1R receptor = molecular target: T1, human GLP-1R receptor (Homo sapiens, UniProt P43220, L260F); assay: CHOK1 GLP-1R cAMP Assay; type: cell-based; settings: CHO-K1 cell line stably expressing human GLP-1R; HTRF cAMP detection
T1 construct: expressed in transfected cells; host or cells: CHO-K1 (ATCC CCL-61)
T1 sequence (P43220 24-463 L260F): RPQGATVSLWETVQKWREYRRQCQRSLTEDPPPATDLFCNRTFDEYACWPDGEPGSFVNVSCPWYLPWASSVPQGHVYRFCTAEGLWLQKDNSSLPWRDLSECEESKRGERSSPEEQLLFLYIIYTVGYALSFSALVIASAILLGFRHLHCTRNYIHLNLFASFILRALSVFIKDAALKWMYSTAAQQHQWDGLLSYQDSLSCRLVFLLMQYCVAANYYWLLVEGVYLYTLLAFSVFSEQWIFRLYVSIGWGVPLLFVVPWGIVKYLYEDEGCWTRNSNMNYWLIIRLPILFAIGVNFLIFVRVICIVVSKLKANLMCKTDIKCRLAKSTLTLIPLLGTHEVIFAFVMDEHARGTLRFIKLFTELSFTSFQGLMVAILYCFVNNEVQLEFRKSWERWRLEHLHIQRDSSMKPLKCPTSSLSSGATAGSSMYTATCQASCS
Protocol: A cell line stably expressing the human GLP-1R receptor (NM_002062.5, including the naturally-occurring variant Leu260Phe) in a CHO-K1 (ATCC® CCL-61™) was used for assay.
GLP-1 Receptor mediated agonist activity was determined in a cell based assay measuring cAMP levels in cells using Homogeneous Time-Resolved Fluorescence (HTRF) cAMP detection kit (CisBio catalog #62AM4PEC, cAMP Gs Dynamic range kit). The cAMP detection method is based on a competitive immunoassay, in which cAMP produced by the cells and cAMP labeled with the dye d2 compete for binding to a Europium-Cryptate-labeled anti-cAMP antibody. The specific HTRF signal is inversely proportional to the concentration of cAMP.
Compounds were added to individual well in 384 well-assay plates (Greiner #784076) using an Echo (LabCyte) dispenser from 10 mM stocks. Varying concentration of compounds were added to wells, and dimethyl sulfoxide was used to normalize each well to a volume of 100 nanoliter. A dose response curve of GLP1(7-36)NH2 (Bachem H-6795) was included in each run. 5 μL of cAMP concentration response standards are applied in specified wells in the assay plates.
Cryo-preserved cells are thawed and resuspended in assay buffer pre-heated to 37° C. (20 mM 2-[4-(2-hydroxyethyl)piperazin-1-yl]ethanesulfonic acid (HEPES) pH 7.4, lx Hank's Balanced Salt Solution (HBSS, Life Technologies #14065) supplemented with 0.1% (w/v) bovine serum albumin (Sigma, A-7030)). Cells were centrifuged at 250*g for 5 min at room temperature, and resuspend in room tempered assay buffer to a final density of 0.16*10^6 cell/mL, to deliver 800 cells/well. 5 μL of assay buffer with 1 mM 3-isobutyl-1-methylxanthin (IBMX; Sigma cat I-7018) was dispensed per well in assay plates using a multidrop combi (Thermo Scientific) subsequently 5 μL of cell suspension was distributed to relevant wells in the assay using a multidrop dispenser. Assay plates were incubated 20 min at room temperature.
Detection reagents, Europium-Cryptate-labeled anti-cAMP antibody and cAMP labeled with the dye d2, are diluted in lysis buffer, provided by the manufacturer. 5 μL of each detection reagent is supplemented to each assay well using a multidrop dispenser. Assay plates are incubated in the dark for at least one hour. The HTRF signal is measured using the HTRF module (excitation: 337 nm, emission A: 665 nm and emission B: 620 nm) in Pherastar FSX (BMG Labtech).
Raw data were converted to pM cAMP using the cAMP standard curve included in each run. Converted data were further analyzed in Genedata Screener (Genedata) and EC50 determinations were made from agonist dose-response curves analyzed with a curve fitting program using a 4-parameter logistic dose response equation (Equation y=A+((B−A)/1+((C/x)^D))) where A is no stimulation, B is full stimulation, C is the EC50 and D is the Hill slope). The percent effect was determined relative to a saturating concentration of a full GLP-1R agonist (GLP1(7-36)NH2 has 100% effect in this assay setup).

[1] = molecular target: T2, endogenous human glucagon-like peptide 1 receptor (GLP-1R) (Homo sapiens, UniProt P43220); assay: EndoC cAMP Accumulation Assay; type: cell-based; settings: EndoC-βH1 human pancreatic β cell line; HTRF cAMP assay
T2 construct: endogenous human glucagon-like peptide 1 receptor (GLP-1R) in a pancreatic insulinoma cell line; host or cells: EndoC-βH1 human pancreatic β cell line
T2 sequence (P43220 24-463): as the sequence (P43220 24-463 L260F) above, with F237L counted along it
Source text: EndoC cAMP Accumulation Assay
A HTRF (Homogeneous Time-Resolved Fluorescence) cAMP assay (cAMP Gs dynamic kit; CisoBio Cat #62AM4PEJ) was used to identify agonists of the endogenous human glucagon-like peptide 1 receptor (GLP-1R) in a pancreatic insulinoma cell line (EndoC-βH1). […] EndoC-βH1 cells have detectable GLP-1R mRNA as detected by qPCR^1. […] The EndoC-βH1 cell line is a valid model of human beta cells and applicable for screenings to identify novel drug target candidates (Mol. Metab., 2018, 8, 144-157). CisBio HTRF cAMP kits are based on a competitive immunoassay using cryptate-labelled anti-cAMP antibody and d2-labeled cAMP. The detection kit is intended for the direct quantitative determination of cAMP. The specific signal (i.e. energy transfer) is inversely proportional to the concentration of cAMP in the standard or sample. Test compounds (10 mM in DMSO) were diluted into assay buffer (HBSS (Sigma #H8264) supplemented with 25 mM HEPES (Gibco #15630, pH 7.4), 0.1% BSA (Sigma #A3059) and 0.5 mM IBMX (Sigma #I7018) included fresh on the day of the assay) into 96 well U-bottom plates (Greiner #650201). Diluted compounds were transferred to ECHO source PP plates (Labcyte #P-05525) and dose response curves were dispensed acoustically using ECHO 550 into black shallow-well u-bottom 384-well HTRF Assay Plates (Corning 4514).
Cryovials of EndoC-H1 (supplied at 1×10e^7 cells/vial) were used directly for screening. The cryovials and were removed from LN2 and thawed rapidly in a 37° C. water bath. The cells were resuspended in assay buffer and centrifuged at 300 g for 5 min. Cells were resuspended in assay buffer at the appropriate concentration, typically at 12e5 cells per mL (3000 cells per well, dependent on cell batch) and 2.5 μL diluted cells were added to all wells of destination plate by Multidrop combi reagent dispenser (Thermofisher). The plates were incubated at room temperature for 30 min. The assay was stopped by adding 2.5 μL anti-cAMP cryptate solution to all wells and 2.5 μL cAMP-d2 solution (both diluted 1:20 in lysis buffer) to columns 1-22 by Combi drop. A volume of 2.5 μL cAMP-d2 solution was added to wells E23 to P24 and 2.5 μL lysis buffer added to wells A23 to D24 by multichannel pipette. The plates were incubated at room temperature for 1 hr and read on an Envision plate reader using excitation wavelength of 320 nm and emission of 590 nm and 660 nm.
Raw data from Envision is converted to % DeltaF according to the manufacturer's instructions. Dose response curves are analysed via 4-Parameter Logistical Analysis and assay plate Z′ values obtained. Samples are graphed as percentage (%) activation plots compared to GIP (1-42, Bachem H-5645) with assay window defined by negative control as basal cell cAMP levels and positive control are defined by maximum GIP (82.5 nM) signal. GLP1 (7-36 amide, Bachem H-6795) dose response curve was included on all plates.

Row | pEC50 (human GLP-1R receptor) | pEC50 [1] | SMILES
1 | 8.29 | 8.34 | C[C@]1(c2ccc(Cl)cn2)Oc2cccc(N3CCN(Cc4nc5c(Cl)cc(C(=O)O)cc5n4C[C@@H]4CCCO4)[C@H]4COC[C@H]43)c2O1 (single isomer, unassigned) [Example 4a, 4-Chloro-2-(((4aR*,7aS*)-4-((R*)-2-(5-chloropyridin-2-yl)-2-methylbenzo[d][1,3]dioxol-4-yl)hexahydrofuro[3,4-b]pyrazin-1(2H)-yl)methyl)-1-(((S)-tetrahydrofuran-2-yl)methyl)-1H-benzo[d]imidazole-6-carboxylic acid]
2 | 7.10 | 6.89 | C[C@]1(c2ccc(Cl)cn2)Oc2cccc(N3CCN(Cc4nc5c(Cl)cc(C(=O)O)cc5n4C[C@@H]4CCCO4)[C@H]4COC[C@H]43)c2O1 (single isomer, unassigned) [Example 4b, 4-Chloro-2-(((4aR*,7aS*)-4-((R*)-2-(5-chloropyridin-2-yl)-2-methylbenzo[d][1,3]dioxol-4-yl)hexahydrofuro[3,4-b]pyrazin-1(2H)-yl)methyl)-1-(((S)-tetrahydrofuran-2-yl)methyl)-1H-benzo[d]imidazole-6-carboxylic acid]
3 | 7.00 | 6.21 | C[C@]1(c2ccc(Cl)cn2)Oc2cccc(N3CCN(Cc4nc5ccc(C(=O)O)cc5n4C[C@@H]4CCO4)[C@H]4COC[C@H]43)c2O1 (single isomer, unassigned) [Example 5c, 2-(((4aR*,7aS*)-4-((R*)-2-(5-Chloropyridin-2-yl)-2-methylbenzo[d][1,3]dioxol-4-yl)hexahydrofuro[3,4-b]pyrazin-1(2H)-yl)methyl)-1-(((S)-oxetan-2-yl)methyl)-1H-benzo[d]imidazole-6-carboxylic acid]
4 | 6.48 | 5.68 | C[C@]1(c2ccc(Cl)cn2)Oc2cccc(N3CCN(Cc4nc5ccc(C(=O)O)cc5n4C[C@@H]4CCO4)[C@H]4COC[C@H]43)c2O1 (single isomer, unassigned) [Example 5d, 2-(((4aR*,7aS*)-4-((R*)-2-(5-Chloropyridin-2-yl)-2-methylbenzo[d][1,3]dioxol-4-yl)hexahydrofuro[3,4-b]pyrazin-1(2H)-yl)methyl)-1-(((S)-oxetan-2-yl)methyl)-1H-benzo[d]imidazole-6-carboxylic acid]
5 | 7.27 | 6.52 | C[C@]1(c2ccc(Cl)cc2F)Oc2cccc(N3CCN(Cc4nc5ccc(C(=O)O)cc5n4C[C@@H]4CCO4)[C@H]4COC[C@H]43)c2O1 (single isomer, unassigned) [Example 6b, 2-(((4aR*,7aS*)-4-((R*)-2-(4-Chloro-2-fluorophenyl)-2-methylbenzo[d][1,3]dioxol-4-yl)hexahydrofuro[3,4-b]pyrazin-1(2H)-yl)methyl)-1-(((S)-oxetan-2-yl)methyl)-1H-benzo[d]imidazole-6-carboxylic acid]
6 | 7.41 | 6.82 | C[C@]1(c2ccc(Cl)cc2F)Oc2cccc(N3CCN(Cc4nc5ccc(C(=O)O)cc5n4C[C@@H]4CCO4)[C@H]4COC[C@H]43)c2O1 (single isomer, unassigned) [Example 6c, 2-(((4aR*,7aS*)-4-((R*)-2-(4-Chloro-2-fluorophenyl)-2-methylbenzo[d][1,3]dioxol-4-yl)hexahydrofuro[3,4-b]pyrazin-1(2H)-yl)methyl)-1-(((S)-oxetan-2-yl)methyl)-1H-benzo[d]imidazole-6-carboxylic acid]
7 | 6.28 | 5.96 | C[C@]1(c2ccc(Cl)cc2F)Oc2cccc(N3CCN(Cc4nc5ccc(C(=O)O)cc5n4C[C@@H]4CCO4)[C@H]4COC[C@H]43)c2O1 (single isomer, unassigned) [Example 6d, 2-(((4aR*,7aS*)-4-((R*)-2-(4-Chloro-2-fluorophenyl)-2-methylbenzo[d][1,3]dioxol-4-yl)hexahydrofuro[3,4-b]pyrazin-1(2H)-yl)methyl)-1-(((S)-oxetan-2-yl)methyl)-1H-benzo[d]imidazole-6-carboxylic acid]
8 | 7.34 | 7.72 | C[C@]1(c2ccc(Cl)cc2F)Oc2cccc(N3CCN(Cc4nc5ccc(C(=O)O)cc5n4CCn4cccn4)[C@H]4COC[C@H]43)c2O1 (single isomer, unassigned) [Example 7a]
9 | 6.96 | 5.41 | C[C@]1(c2ccc(Cl)cc2F)Oc2cccc(N3CCN(Cc4nc5ccc(C(=O)O)cc5n4CCn4cccn4)[C@H]4COC[C@H]43)c2O1 (single isomer, unassigned) [Example 7c]
10 | 6.28 | 5.96 | C[C@]1(c2ccc(Cl)cn2)Oc2cccc(N3CCN(Cc4nc5ccc(C(=O)O)cc5n4C[C@@H]4CCCO4)[C@H]4COC[C@H]43)c2O1 (single isomer, unassigned) [Example 8b, 2-(((4aR*,7aS*)-4-((R*)-2-(5-Chloropyridin-2-yl)-2-methylbenzo[d][1,3]dioxol-4-yl)hexahydrofuro[3,4-b]pyrazin-1(2H)-yl)methyl)-1-(((S)-tetrahydrofuran-2-yl)methyl)-1H-benzo[d]imidazole-6-carboxylic acid]
11 | 6.74 | 6.18 | C[C@]1(c2ccc(Cl)cn2)Oc2cccc(N3CCN(Cc4nc5c(F)cc(C(=O)O)cc5n4C[C@@H]4CCO4)[C@H]4COC[C@H]43)c2O1 (single isomer, unassigned) [Example 9b, 2-((4aR*,7aS*)-4-((R*)-2-(5-Chloropyridin-2-yl)-2-methylbenzo[d][1,3]dioxol-4-yl)hexahydrofuro[3,4-b]pyrazin-1(2H)-yl)methyl)-4-fluoro-1-(((S)-oxetan-2-yl)methyl)-1H-benzo[d]imidazole-6-carboxylic acid]
